Where a SMILES comes first, the peptide text is derived from it. The star is where a group is joined. Cbz = O=C(OCc1ccccc1)*
Key:
HEK293 cells = assay: Trypan blue staining of HEK293 cells treated with toxic agents; assay type: cell-based, human; conditions: 50 micromolar, within 24 hr
[1] = test system: HEK293 cell pools expressing the fLUC-TRplp-EYFP, fLUC-TRdm-EYFP, pcuLf-TRplp-EYFP or pcuLf-TRdm-EYFP expression cassettes; assay: Cytotoxicity assay by Western blot, bicistronic TR cassettes; assay type: cell-based, human; conditions: toxic doses
[2] = test system: HEK293 or HT1080 cells transduced with rAAV TRplp-EYFP / TRdm-EYFP; assay: TR-EYFP translation after rAAV transduction; assay type: cell-based, human; conditions: 25 μM, 24 hr
Description: This example is to show delivery of the TRplp-EYFP and TRdm-EYFP cassettes to HEK293 and HT1080 cells using rAAV transduction. HEK293 or HT1080 cells are plated on flame sterilized glass slides and grown until 60-70% confluent (1-2 days), washed with L-DMEM (DMEM containing 2% fetal bovine serum), and infected with rAAV for 2 hr. The medium is replaced with DMEM, 10% FBS and the cells are incubated for 24 hours. Infected cells are treated with DMEM, 10% FBS supplemented with toxic levels of MG132 (25 μM) for 24 hr prior to direct microscopic or Western analysis as described above.

[3] = test system: HEK293 TRplp-TKsr39 cells; assay: Pro-drug induced cell death, Trypan blue cell viability assay; assay type: cell-based, human
Description: (§1) In this example, HEK293, HEK CMV-EYFP, and HEK TRplp-TKsr39 cells are treated with various amounts of the pro-drug ganciclovir and tested for cell death after 4 days incubation using the Trypan blue staining assay. Cells are plated into 6-well trays, grown to 70-80% confluence, and treated with DMEM, 10% FBS supplemented with ganciclovir (0, 10 nM, 100 nM, 1 μM, 5 μM or 10 μM) for 4 days. Viable cell counts are performed at 3 days and 4 days post-incubation (FIG. 13).

[4] = Pro-drug induced cell death, Trypan blue cell viability assay, control cells; assay type: cell-based; conditions: human, HEK293 or HEK CMV-EYFP cells (control cells); any concentration (10 nM to 10 μM), 3 or 4 days; read-out: cells remaining Trypan blue viable
Description: as §1

TKsr39 protein = TKsr39 protein (Human herpesvirus 1, UniProt Q9QNF7, A168F/F161L/I160F/L159I/L169M); conditions: TKsr39 versus wildtype TK protein; cited from earlier work
Chain of TKsr39 protein (Q9QNF7 whole entry A168F/F161L/I160F/L159I/L169M, looked up): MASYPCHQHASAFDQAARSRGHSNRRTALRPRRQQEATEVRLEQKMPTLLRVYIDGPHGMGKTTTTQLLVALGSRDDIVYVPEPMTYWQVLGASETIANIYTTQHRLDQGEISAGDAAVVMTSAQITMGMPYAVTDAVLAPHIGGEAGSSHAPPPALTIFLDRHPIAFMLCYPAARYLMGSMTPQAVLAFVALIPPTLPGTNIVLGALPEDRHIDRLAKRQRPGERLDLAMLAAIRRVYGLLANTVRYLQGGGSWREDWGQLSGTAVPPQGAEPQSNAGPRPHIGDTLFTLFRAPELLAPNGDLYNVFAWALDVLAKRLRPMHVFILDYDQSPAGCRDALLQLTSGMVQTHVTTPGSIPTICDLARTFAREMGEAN

SMILES | cell death in HEK293 cells as determined by Trypan blue staining (HEK293 cells) | EYFP translation in cell pools expressing the bicistronic TR cassettes (Western blot, FIG. 4) [1] | translation of EYFP in rAAV transduced cells compared to uninfected control cells [2] | cell viability compared to untreated cells ([3]; 10 nM, 3 days) | cell viability compared to untreated cells ([3]; 100 nM, 3 days) | viability at 10 µM ([3]; Homo sapiens, HEK293, 72 h, 3 days) [%] | viability at 0.01 µM ([3]; Homo sapiens, HEK293, 96 h, 10 nM, 4 days) [%] | viability at 10 µM ([3]; Homo sapiens, HEK293, 96 h, 4 days) [%] | viability [4] [%] | prodrug binding of TKsr39 protein, higher than the wildtype protein (TKsr39 protein) [fold]
CC(C)C[C@@H](C=O)NC(=O)[C@H](CC(C)C)NC(=O)[C@H](CC(C)C)NC(=O)OCc1ccccc1 [MG132] (Cbz-Leu-Leu-Leu-aldehyde) | complete cell death | induce EYFP translation | exhibit selective translation of the fluorescent EYFP protein |  |  |  |  |  |  | 
Nc1nc(O)c2ncn(COC(CO)CO)c2n1 [ganciclovir] |  |  |  | does not exhibit any decrease in cell viability | slight decrease | 86 | 99.7 | 33.7 | 98 to 100 | 83

Reference: patent US9322034B2, “Compositions and methods for detecting and modulating cell death by a translation regulated gene expression system” (Wayne State University, priority 2007, dated 2016)
